These results are taken from ChEMBL document CHEMBL2021833, “Calcitonin gene-related peptide (CGRP) receptor antagonists: pyridine as a replacement for a core amide group” (Bioorg Med Chem Lett, 2012).

Series [1] relates to Liver microsomes. Description: Metabolic stability in rat liver microsomes. The format is ADME, Microsome.
Series [2] is described as follows: Permeability across human Caco2 cells. The class given is ADME, cell-based. Particulars: Caco-2, read-out: permeability.
Series [3] addresses T1, Calcitonin gene-related peptide type 1 receptor (Homo sapiens, UniProt O60894+Q16602). Description: Antagonist activity at CGRP receptor in human SK-N-MC cells assessed as inhibition of CGRP-stimulated cAMP production. The format is functional, cell-based. For orientation: cAMP levels reflect the balance of adenylyl cyclase and phosphodiesterase activity.
The test system of series [4] is Liver microsomes. Description: Metabolic stability in human liver microsomes. The class given is ADME, Microsome.
Series [5] deals with T1, Calcitonin gene-related peptide type 1 receptor. In words: Displacement of [I125]CGRP from CGRP receptor in human SK-N-MC cell membrane after 2 hrs by gamma or scintillation counting. The class given is cell membranes.
Series [6] is described as follows: Oral bioavailability in rat. The format is ADME, organism-based. Particulars: in vivo.
The target in series [7] is T1, Calcitonin gene-related peptide type 1 receptor. Description: Antagonist activity at CGRP receptor in human SK-N-MC cells assessed as inhibition of CGRP-stimulated cAMP production in presence of plasma. The class given is functional, cell-based.
Another series deals with Plasma. In words: Fraction unbound in po dosed rat plasma. The class given is ADME, organism-based. Particulars: in vivo.

T1 sequence (Q16602 whole entry, one chain of several): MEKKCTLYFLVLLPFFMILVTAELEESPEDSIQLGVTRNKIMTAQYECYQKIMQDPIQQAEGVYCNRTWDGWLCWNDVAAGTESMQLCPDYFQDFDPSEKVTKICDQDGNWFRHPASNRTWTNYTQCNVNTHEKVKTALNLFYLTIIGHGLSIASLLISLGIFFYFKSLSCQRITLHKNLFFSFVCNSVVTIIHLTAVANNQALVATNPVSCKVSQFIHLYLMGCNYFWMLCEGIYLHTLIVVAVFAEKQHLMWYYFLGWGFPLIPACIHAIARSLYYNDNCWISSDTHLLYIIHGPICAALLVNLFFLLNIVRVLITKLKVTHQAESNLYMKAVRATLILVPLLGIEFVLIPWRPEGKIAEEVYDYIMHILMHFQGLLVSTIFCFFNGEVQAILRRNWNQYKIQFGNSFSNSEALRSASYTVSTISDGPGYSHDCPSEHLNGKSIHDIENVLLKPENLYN

Consider `Cc1cc(CC(OC(=O)N2CCC(c3cc4ccccc4[nH]c3=O)CC2)c2cc(CN3CCCCC3)ccn2)cc2cn[nH]c12` (centres undefined), for which the Stability entry in the series on Liver microsomes [1] and in the series on Liver microsomes [4] was “Unstable” throughout. For the same molecule, the Papp in series [2] amounted to 8.5 ×10⁻⁶ cm/s. Besides, the IC50 stood at 0.1 nM in series [3] and 0.16 nM in series [5].
For `Cc1cc(CC(OC(=O)N2CCC(c3cc4ccccc4[nH]c3=O)CC2)c2cc(CN3CCCC3)ccn2)cc2cn[nH]c12` (centres undefined), the Stability result with Liver microsomes [1] and in the series on Liver microsomes [4] was “Unstable” each time. For the same molecule, the Papp in series [2] turned out to be 4.9 ×10⁻⁶ cm/s. In addition, the IC50 in series [5] came to 0.24 nM.
Consider `Cc1cc(CC(OC(=O)N2CCC(c3cc4ccccc4[nH]c3=O)CC2)c2cc(CN3CCOCC3)ccn2)cc2cn[nH]c12` (centres undefined), for which the Stability entry in the series on Liver microsomes [1] and with Liver microsomes [4] was “Unstable” each time. Moreover, the Papp in series [2] was 9.9 ×10⁻⁶ cm/s. Besides, the IC50 in series [5] is 1.2 nM.
As for `Cc1cc(CC(OC(=O)N2CCC(c3cc4ccccc4[nH]c3=O)CC2)c2cc(CN3CCCCCC3)ccn2)cc2cn[nH]c12` (centres undefined), the Stability result in the series on Liver microsomes [1] and with Liver microsomes [4] was “Unstable” each time. Also, the Papp in series [2] came out at 2.8 ×10⁻⁶ cm/s. Besides, the values for the IC50 in series [3] and in series [5] were 0.042 nM and 0.095 nM, respectively.
With `Cc1cc(CC(OC(=O)N2CCC(c3cc4ccccc4[nH]c3=O)CC2)c2cc(C(=O)N(C)C)cc(Cl)n2)cc2cn[nH]c12` (centres undefined), in series [6], the bioavailability is 4.5%. Moreover, the Ki in series [7] was determined as 3.3 nM. Besides, in series [2], the Papp came to 5.2 ×10⁻⁶ cm/s. Besides, the values for the IC50 in series [3] and in series [5] were 0.34 nM and 0.28 nM, respectively. The “Cp(f)” value with Plasma is reported as 6%.
Consider `Cc1cc(CC(OC(=O)N2CCC(n3c(=O)[nH]c4ncccc43)CC2)c2cc(C(=O)N(C)C)cc(Cl)n2)cc2cn[nH]c12` (centres undefined), for which, in series [7], the Ki was 0.18 nM. For the same molecule, the Papp in series [2] came out at 1.6 ×10⁻⁶ cm/s. The “Cp(f)” value in the series on Plasma is listed as 21%. Besides, in series [5], the IC50 amounted to 0.071 nM.
In the case of `Cc1cc(CC(CC(=O)N2CCC(N3Cc4ccccc4NC3=O)CC2)c2ccccn2)cc2cn[nH]c12` (centres undefined), the bioavailability in series [6] stood at 3%. Further, the Papp in series [2] amounted to 12 ×10⁻⁶ cm/s. In addition, the concentration for half-maximal inhibition (IC50) amounted to 8.7 nM in series [3] and 8.6 nM in series [5].
In the same order, the values of `Cc1cc(CC(CC(=O)N2CCC(N3Cc4cccc(F)c4NC3=O)CC2)c2ccccn2)cc2cn[nH]c12` (centres undefined) are 3%, 21 ×10⁻⁶ cm/s, 20 nM and 35 nM.
`CCc1ccnc(C(CC(=O)N2CCC(N3Cc4ccccc4NC3=O)CC2)Cc2cc(C)c3[nH]ncc3c2)c1` (centres undefined) displayed a bioavailability in series [6] of 2%. Besides, the Papp in series [2] came out at 14 ×10⁻⁶ cm/s. Besides, the IC50 in series [3] was found to be 13 nM; in series [5], 10 nM.
In series [6], `Cc1ccc(C(CC(=O)N2CCC(N3Cc4ccccc4NC3=O)CC2)Cc2cc(C)c3[nH]ncc3c2)nc1` (centres undefined) had a bioavailability of 1%. In series [2], the Papp came to 6.4 ×10⁻⁶ cm/s. In addition, the half-inhibitory concentration (IC50) in series [3] is 18 nM; in series [5], 12 nM.

As a reminder, the IC50 is the point on the concentration scale where inhibition reaches its midpoint. Broadly, the bioavailability is dose-corrected exposure relative to a reference, in per cent. Read a high bioavailability as much systemic uptake. The term Ki denotes the equilibrium dissociation constant of an inhibitor or competing ligand from its target.
